Laboratory results: patent US6310040A, “Treating retinal neuronal disorders by the application of insulin-like growth factors and analogs” (Cephalon, Inc., priority 1992, dated 2001)
Read-outs that look alike come from different tables or passages of the source. Non-standard residues stand in square brackets, D forms with d. No end group written: not given here. Tyr(3,5-I2) = N[C@@H](Cc1cc(I)c(O)c(I)c1)C(=O)O

Tests used:
[1] = tested on: postnatal rat retinal neuronal cells; test: calcein-AM survival assay, dissociated postnatal rat retinal neuronal cultures; format: cell-based; conditions: for fluorescence values (total number of cells surviving) versus untreated cultures: peptides 100 uM, postnatal rat retina; for fluorescence values (total number of cells surviving) versus untreated cultures / relative fluorescence units (total number of cells surviving) versus untreated control: 4 days; for relative fluorescence units (total number of cells surviving) versus untreated control: 100 nM, postnatal day 6 rat retina
Description: (§1) Retinas were dissected from embryonic chicks, dissociated by enzymatic digestion and cultured in vitro in defined insulin/serum-free medium according to Sato et al. (1979, Proc. Natl. Acad. Sci. USA 76:514-517). The number of cells in culture was measured using the vital stain calcein-AM. All cells are permeable to calcein-AM, but only live cells are capable of converting this compound into a fluorescent derivative detectable by ordinary methods. In the first experiment, calcein-AM (6 μM) was added to different cultures of retinal cells and the relationship between the level of fluorescence and the number of cells was determined.
To determine the concentration of IGF-I required to promote survival of pre- or postnatal retinal neurons in culture, the following experiments were carried out: Retinal neurons were prepared from dissociated retina obtained from 10 day old chick embryos, or from […] postnatal day 6 rats as described above. Cultures were incubated in the presence of increasing concentrations of IGF-I and the number of cells surviving at 48 hours post-treatment was measured in the calcein-AM assay. […] Based upon previously published data, the concentrations of IGF-I that promote neuronal cell survival in our experiments are consistent with the fact that IGF-I is acting through its own receptor (Karey et al., 1988, In Vitro Cell. Dev. Biol. 24:1107-1113; Ballard et al., 1988, Biochem. J. 249:721-726).
To determine whether retinal survival could be enhanced when incubated in the presence of functional derivatives of IGF-I and IGF-II, a linear fragment of IGF-II that is relatively conserved within both IGF-I and IGF-II, was tested in our assay. The fragment contained a sequence of 14 amino acids from IGF-II (amino acids 54-67, wherein the amino terminal amino acid of IGF-II is number 1).
To determine whether IGF-I, IGF-II, and IGF-III can promote the survival of retinal neuronal cells, dissociated cultures of postnatal rat retina were prepared and assayed for the total number of cells present after incubation in the presence or absence of IGFs. Retinas were dissected from postnatal day 6 rats, dissociated by enzymatic digestion and seeded at a density of 6.25×10^4 cells/cm^2 in defined insulin/serum-free media (Bottenstein et al., 1979, PNAS 76:514-517). These cultures are heterogenous, comprised of at least five independent retinal neuronal cell subpopulations, i.e., amacrine, bipolar, horizontal, photoreceptor and ganglion cells. Cultures were incubated in the presence or absence of 100 nM of each of the IGFs. The total number of cells remaining after 4 days was assayed by incubation with the vital stain calcein-AM at 6 uM. This compound is taken up by all cells but can only be converted to a fluorescent derivative by live cells.
To determine whether linear peptide derivatives of IGFs can support the survival of retinal neuronal cells, dissociated cultures of postnatal rat retina were prepared and assayed for the total number of cells present after incubation in the presence or absence of peptides (100 uM). Retinal neuronal cell cultures were prepared as described in Example 11 and the total number of cells surviving analyzed analogously. Peptides were derived from the amino acid regions 7-30 and 55-70 of IGF-I and […] and the region within IGF-II, amino acids 54-67.

retinal neuronal cells = test: calcein-AM survival assay, dissociated embryonic chick retinal cultures; format: cell-based; conditions: 48 hours post-treatment
Description: To determine whether IGF-1 acts to promote survival of retinal neuronal cells, dissociated cultures of avian retina were prepared from animals at various developmental ages and the number of cells present in the cultures, following incubation for 48 hours in the presence or absence of IGF-I, was measured.
as §1
In the next experiment, IGF-I was added to half of the cultures at a final concentration of 100 nM, and the number of cells remaining at 48 hours post-treatment was measured using the calcein-AM assay described above. […]

[2] = tested on: photoreceptor subpopulation of cells; test: Rho42 antibody fluorescence staining of postnatal rat retinal neuronal cultures; format: cell-based; conditions: 100 nM, 48 hours
Description: To determine whether IGF-I or IGF-II (54-67) could specifically promote survival of the photoreceptor subpopulation of cells in rat retinal neuronal cultures, the following experiments were carried out: The monoclonal antibody Rho42, which binds to an antigenic epitope within the extracellular domain of rhodopsin expressed on the surface of rod photoreceptor cells (Molday and MacKenzie, 1983, Biochemistry 22:653), was used in this assay. Postnatal rat retinal neuronal cultures were incubated in the presence or absence of 100 nM of IGF-I for 48 hours. Cells were harvested and reacted with Rho42 to which a fluorescent label had been added. Slides were prepared and the level of fluorescence in the cultures was qualitatively assessed using a fluorescence microscope.

retinal neurons = test: retinal neurite regeneration, phase contrast microscopy; format: cell-based; conditions: 100 nM, 2-4 days following treatment, insulin/serum-free media
Description: To determine whether IGF-I affects retinal neurite regeneration, a population of neurons prepared from dissociated retina was cultured in defined insulin/serum-free media in the presence or absence of 100 nM IGF-I. Cultures were examined by phase contrast microscopy at 2-4 days following IGF-I treatment.

photoreceptor cells = format: cell-based, rat
Description: To quantitate this assay, we developed a cell-based Rho42 ELISA test as follows: Several postnatal rat retinal cultures containing different numbers of cells, were incubated for 2-4 days following which cultures were fixed and immunolabelled with either the Rho42 monoclonal antibody, or the nonspecific monoclonal antibody P3, secreted by the myeloma cell line P3X6Ag8. Antibody binding was detected using a secondary antibody labelled with horseradish peroxidase and a chromogenic substrate O-phenylenediamine (OPD), having a maximum absorption wavelength of 490 nm. The level of absorption of light at 490 nm measured in the cultures is therefore directly related to the amount of primary antibody that originally bound to the cells. In FIG. 8 it can be seen that there is a linear relationship between the level of absorption at 490 nm and the number of cells in each culture.
Next, rat retinal neuronal cultures were incubated in the presence of IGF-I or IGF-II (54-67) for 48 hours following which they were subjected to the cell-based ELISA test as described above. Both IGF-I and IGF-II (54-67) promoted the survival of photoreceptor cells by 20-30% compared with control untreated cultures.

CAPAKSE
fluorescence values (total number of cells surviving) versus untreated cultures [1]: higher fluorescence values than untreated cultures

TY(I2)CAPAKSE (T[Tyr(3,5-I2)]CAPAKSE) [iodinated TYCAPAKSE]
fluorescence values (total number of cells surviving) versus untreated cultures [1]: higher fluorescence values than untreated cultures

IGF-I: Recombinant human insulin-like growth factor I (somatomedin C), 70 amino acids, SEQ ID NO:1
relative fluorescence units (total number of cells surviving) versus untreated control [1]: higher than that found for untreated control cultures
survival of postnatal retinal neurons versus concentration ([1]; postnatal day 6 rats, increasing concentrations, 48 hours post-treatment): promote survival of retinal neurons in culture in a dose-dependent manner
enhanced survival of cells compared to control, untreated cultures (retinal neuronal cells; 100 nM, retinal cultures from embryos at 8, 10, 12 and 14 days of age): 20-60%
survival of prenatal retinal neurons versus concentration (retinal neuronal cells; 10 day old chick embryos, increasing concentrations): promote survival of retinal neurons in culture in a dose-dependent manner
level of Rho42 fluorescence (photoreceptor survival), qualitative [2]: increased level of fluorescence compared to untreated cultures
cells with neurites (axonal regeneration) (retinal neurons): more cells with neurites than untreated control cultures
promoted survival of photoreceptor cells compared with control untreated cultures (photoreceptor cells; 48 hours, rat retinal neuronal cultures): 20-30%

EALLETYCATPAKSE
fluorescence values (total number of cells surviving) versus untreated cultures [1]: higher fluorescence values than untreated cultures

CC(C)C[C@H](NC(=O)[C@H](C)N)C(=O)N[C@@H](CC(C)C)C(=O)N[C@@H](CCC(=O)O)C(=O)N[C@H](C(=O)N[C@@H](Cc1ccc(O)cc1)C(=O)N[C@@H](CS)C(=O)N[C@@H](C)C(=O)N[C@H](C(=O)N1CCC[C@H]1C(=O)N[C@@H](C)C(=O)N[C@@H](CCCCN)C(=O)N[C@@H](CO)C(=O)N[C@@H](CCC(=O)O)C(=O)O)[C@@H](C)O)[C@@H](C)O [IGF-II (54-67), ALLETYCATPAKSE]
promoted survival of photoreceptor cells compared with control untreated cultures (photoreceptor cells; 48 h): 20-30%

IGF-II: Recombinant human insulin-like growth factor II, 67 amino acids, SEQ ID NO:16
relative fluorescence units (total number of cells surviving) versus untreated control [1]: higher than that found for untreated control cultures

GAELVDALQFVSGDRGFYFNKPTG (GAELVDALQFYSGDRGFYFNKPTG)
fluorescence values (total number of cells surviving) versus untreated cultures [1]: higher fluorescence values than untreated cultures

CATPAKSE
fluorescence values (total number of cells surviving) versus untreated cultures [1]: higher fluorescence values than untreated cultures

TYCAPA
fluorescence values (total number of cells surviving) versus untreated cultures [1]: higher fluorescence values than untreated cultures

YCAPA
fluorescence values (total number of cells surviving) versus untreated cultures [1]: higher fluorescence values than untreated cultures

IGF-III: truncated form of IGF-I lacking the three N-terminal amino acid residues, SEQ ID NO:2
relative fluorescence units (total number of cells surviving) versus untreated control [1]: higher than that found for untreated control cultures
